Consider 2 molecules from patent US20190085013A1, “NUCLEOTIDE AND NUCLEOSIDE THERAPEUTIC COMPOSITIONS AND USES RELATED THERETO” (EMORY UNIVERSITY, priority 2016, published 2019).

For test [1], the target named is NS5B-621 from HCV GT-1b Con-1 (Hepatitis C virus genotype 1b, UniProt Q9WMX2). In words: NS5B RNA-dependent RNA polymerase inhibition assay. As to conditions: 1 μM NTP substrates including either [32P]-CTP or [32P]-UTP, columns not distinguished. Format: biochemical. As for the experimental part:
Compounds were assayed for inhibition of NS5B-621 from HCV GT-1b Con-1. Reactions included purified recombinant enzyme, 1 u/μL negative-strand HCV IRES RNA template, and 1 μM NTP substrates including either [^32P]-CTP or [^32P]-UTP. Assay plates were incubated at 27° C. for 1 hour before quench. [^32P] incorporation into macromolecular product was assessed by filter binding.

Test [2] deals with HCV Replicon 1a-H77. Kind of test: HCV replicon GT-1a luciferase assay. Format: cell-based. As to conditions: Hepatitis C virus, GT1A, GT-1a H77 replicon.
The subject of test [3] is HCV Replicon 1b-Con1. In words: HCV replicon GT-1b luciferase assay. Format: cell-based. To be noted: Hepatitis C virus, GT1B, read-out: HCV Replicon 1b-Con1 EC50. From the text:
Cell Culture—The reporter cell line Huh-luc/neo-ET was obtained from Dr. Ralf Bartenschlager (Department of Molecular Virology, Hygiene Institute, University of Heidelberg, Germany) by ImQuest BioSciences through a specific licensing agreement. This cell line harbors the persistently replicating I389luc-ubi-neo/NS3-3′/ET replicon containing the firefly luciferase gene-ubiquitin-neomycin phosphotransferase fusion protein and EMCV IRES driven NS3-5B HCV coding sequences containing the ET tissue culture adaptive mutations (E1202G, Tl2081, and K1846T). A stock culture of the Huh-luc/neo-ET was expanded by culture in DMEM supplemented with I 0% FCS, 2 mM glutamine, penicillin ([…])/streptomycin (100 μg/mL) and I× nonessential amino acids plus 1 mg/mL G418. The cells were split 1:4 and cultured for two passages in the same media plus 250 μg/mL G418. […] 5% C02 then anti-HCV activity was measured by luciferase endpoint. […]
Measurement of Virus Replication-HCV replication from the replicon assay system was measured by luciferase activity using the britelite plus luminescence reporter gene kit according to the manufacturer's instructions (Perkin Elmer, Shelton, Conn.). […] The well contents were transferred to a white 96-well plate and luminescence was measured within 15 minutes using the Wallac 1450Microbeta Trilux liquid scintillation counter. […]

Turning to `O=c1ccn([C@@H]2O[C@H](COP(=O)(O)OP(=O)(O)OP(=O)(O)O)[C@@H](O)[C@]2(O)CF)c(=O)[nH]1` [DRIVE-0060], the IC50 in test [1] (first IC50 column) turned out to be 1 µM; in test [1] (second IC50 column) it was 13.4 µM.
Regarding `CC(C)OC(=O)[C@H](C)N[P@](=O)(OC[C@H]1O[C@@H](n2ccc(=O)[nH]c2=O)[C@@](O)(CF)[C@@H]1O)Oc1ccccc1` [DRIVE-0087], the EC50 in test [2] is 540 nM; in test [3], 750 nM.
